Measurements taken from US20130102618A1, “3-AMINO-5,6-DIHYDRO-1H-PYRAZIN-2-ONE DERIVATIVES USEFUL FOR THE TREATMENT OF ALZHEIMER'S DISEASE AND OTHER FORMS OF DEMENTIA” (JANSSEN PHARMACEUTICA NV, priority 2010, published 2013).

Experiments:
[1] = tested on: Aβ42 produced and secreted into the medium of human neuroblastoma SKNBE2 cells; assay: Cellular αlisa assay in SKNBE2 cells, Aβ42; assay type: cell-based; settings: SKNBE2 expressing wild type hAPP695, incubated for 18 hours, read-out: Cellular αlisa assay in SKNBE2 cells Aβ42 pIC50 (converted)
Method: (§1) In two αlisa assays the levels of Aβtotal and Aβ42 produced and secreted into the medium of human neuroblastoma SKNBE2 cells are quantified. The assay is based on the human neuroblastoma SKNBE2 expressing the wild type Amyloid Precursor Protein (hAPP695). The compounds are diluted and added to these cells, incubated for 18 hours and then measurements of Aβ42 and Aβtotal are taken. Aβtotal and Aβ42 are measured by sandwich αlisa. αlisa is a sandwich assay using biotinylated antibody AbN/25 attached to streptavidin coated beads and antibody Ab4G8 or cAb42/26 conjugated acceptor beads for the detection of Aβtotal and Aβ42 respectively. In the presence of Aβtotal or Aβ42, the beads come into close proximity. The excitation of the Donor beads provokes the release of singlet oxygen molecules that triggers a cascade of energy transfer in the Acceptor beads, resulting in light emission. Light emission is measured after 1 hour incubation (excitation at […] and emission at 615 nm).
(§2) A best-fit curve is fitted by a minimum sum of squares method to the plot of % Controlmin versus compound concentration. From this an IC50 value (inhibitory concentration causing 50% inhibition of activity) can be obtained.

[2] = biological target: T1, recombinant BACE1 protein (Homo sapiens, UniProt P56817); assay: Biochemical FRET based assay; settings: recombinant BACE1 1 μg/ml, APP-derived Swedish-mutation peptide substrate, 120 minutes, room temperature, pH 5.0; read-out: Biochemical FRET based assay pIC50 (converted)
T1 construct: recombinant BACE1 protein in a final concentration of 1 μg/ml
Description: This assay is a Fluorescence Resonance Energy Transfer Assay (FRET) based assay. The substrate for this assay is an APP derived 13 amino acids peptide that contains the ‘Swedish’ Lys-Met/Asn-Leu mutation of the amyloid precursor protein (APP) β-secretase cleavage site. This substrate also contains two fluorophores: (7-methoxy-coumarin-4-yl)acetic acid (Mca) is a fluorescent donor with excitation wavelength at 320 nm and emission at 405 nm and 2,4-Dinitrophenyl (Dnp) is a proprietary quencher acceptor. […] Upon cleavage by BACE1, the fluorophore Mca is separated from the quenching group Dnp, restoring the full fluorescence yield of the donor. The increase in fluorescence is linearly related to the rate of proteolysis (Koike H et al. J Biochem. 1999, 126, 235-42).
Briefly in a 384-well format recombinant BACE1 protein in a final concentration of 1 μg/ml is incubated for 120 minutes at room temperature with 10 μm substrate in incubation buffer (40 mM Citrate buffer pH 5.0, 0.04% PEG, 4% DMSO) in the absence or presence of compound. Next the amount of proteolysis is directly measured by fluorescence measurement at T=0 and T=120 (excitation at 320 nm and emission at 405 nm). Results are expressed in RFU, as difference between T120 and T0.
A best-fit curve is fitted by a minimum sum of squares method to the plot of % Controlmin versus compound concentration. From this an […] value (inhibitory concentration causing 50% inhibition of activity) can be obtained.

[3] = tested on: Aβtotal produced and secreted into the medium of human neuroblastoma SKNBE2 cells; assay: Cellular αlisa assay in SKNBE2 cells, Aβtotal; assay type: cell-based; settings: SKNBE2 expressing wild type hAPP695, incubated for 18 hours, read-out: Cellular αlisa assay in SKNBE2 cells Aβtotal pIC50 (converted)
Method: as §1, §2

T1 sequence (P56817 46-501): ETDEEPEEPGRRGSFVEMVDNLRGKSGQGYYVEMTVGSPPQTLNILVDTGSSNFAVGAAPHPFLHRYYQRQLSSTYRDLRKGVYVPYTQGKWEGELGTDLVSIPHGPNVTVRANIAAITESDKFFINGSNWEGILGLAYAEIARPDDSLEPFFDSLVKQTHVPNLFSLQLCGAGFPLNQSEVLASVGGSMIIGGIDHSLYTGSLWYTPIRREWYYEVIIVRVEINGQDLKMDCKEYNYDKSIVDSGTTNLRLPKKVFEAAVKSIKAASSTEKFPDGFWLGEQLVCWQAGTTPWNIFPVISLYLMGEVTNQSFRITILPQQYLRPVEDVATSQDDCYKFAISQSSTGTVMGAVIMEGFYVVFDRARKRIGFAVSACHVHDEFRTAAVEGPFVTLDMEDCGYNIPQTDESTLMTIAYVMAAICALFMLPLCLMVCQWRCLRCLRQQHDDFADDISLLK

IC50 [1] [µM]	IC50 [2] [µM]	IC50 [3] [µM]	melting point [°C]	Structure (SMILES)
7.08	27.5	5.75	218.6	CN1CC(C)(c2cccc(-c3cccc(C#N)c3)c2)N=C(N)C1=O (stereo not drawn) [compound 1]
7.94	15.5	5.75	230.4	COc1cncc(-c2cccc(C3(C)CN(C)C(=O)C(N)=N3)c2)c1 (stereo not drawn) [compound 2]
0.115	0.457	0.107		CN1CC(C)(c2cccc(NC(=O)c3ccc(Cl)cn3)c2)N=C(N)C1=O (stereo not drawn) [compound 3]
> 10	> 30.2	> 10	141.5	CN1CC(C)(c2cc(-c3ccccc3)c(F)cc2F)N=C(N)C1=O (stereo not drawn) [compound 6]
4.47	7.59	4.07	180.5	COc1cncc(-c2cc(C3(C)CN(C)C(=O)C(N)=N3)c(F)cc2F)c1 (stereo not drawn) [compound 7]
> 10	> 30.2	> 10	145.2	CN1CC(C)(c2cc(-c3cncnc3)c(F)cc2F)N=C(N)C1=O (stereo not drawn) [compound 10]
> 10	> 30.2	> 10	234.6	CN1CC(C)(c2cccc(-c3cncnc3)c2)N=C(N)C1=O (stereo not drawn) [compound 16]
